Source: US20260001922A1, “PEPTIDES TARGETING SODIUM CHANNELS TO TREAT PAIN” (priority 2022, published 2026)
Positions of bridges follow the written chain, without caps; N, C: chain ends. Residues, ends and D or L forms follow the SMILES beside them.

Tested on: thermal nociception in naïve rats
Conditions: 1.6 μg i.t.

`CSCC[C@@H]1NC(=O)[C@H](Cc2c[nH]c3ccccc23)NC(=O)[C@H](CCCCN)NC(=O)[C@H](CCC(N)=O)NC(=O)[C@@H](NC(=O)[C@@H](N)CCC(N)=O)CSSC[C@@H]2NC(=O)[C@@H]3CSSC[C@@H](C(=O)N[C@@H](CCCNC(=N)N)C(=O)N[C@@H](CCCCN)C(=O)N[C@@H](CCC(=O)O)C(=O)N[C@@H](CC(C)C)C(=O)N[C@@H](CC(C)C)C(N)=O)NC(=O)[C@H](Cc4c[nH]c5ccccc45)NC(=O)[C@H](CC(C)C)NC(=O)[C@H](CCCNC(=N)N)NC(=O)[C@H](CSSC[C@H](NC(=O)[C@H]([C@@H](C)O)NC(=O)[C@H](CCC(N)=O)NC1=O)C(=O)N[C@@H](CC(=O)O)C(=O)N[C@@H](CCCCN)C(=O)N[C@@H](CC(=O)O)C(=O)N[C@@H](CCCNC(=N)N)C(=O)N[C@@H](CCCCN)C(=O)N3)NC(=O)[C@H](CCCNC(=N)N)NC(=O)[C@H](Cc1ccccc1)NC(=O)CNC(=O)[C@H](CCC(=O)O)NC2=O` [PTx2-3127] (H-QCQKWMQTCDKDRKCCEGFRCRLWCRKELL-NH2; disulfide 2-16, 9-21, 15-25) was tested, and the motor activity was “did not lame or significantly alter motor activity”.
